Key:
Assay type in all cases: physicochemical
[1] = Static surface tension by the Wilhelmy method (plate method); conditions: 0.1 wt. % aqueous solution, left 1 day, 25° C.
Procedure: For the measurement of surface tension, a uniform liquid was used that was obtained by heating each compound at about 60° C. The compounds were each dissolved in water to prepare 10 g of 0.1 wt. % aqueous solutions. After the aqueous solutions were left to stand for 1 day, the static surface tension thereof was measured at 25° C. according to the Wilhelmy method (plate method). The measurement instrument used was a “SURFACE TENSIOMETER CBVP-A3” (product of Kyowa Interface Science Co., Ltd.).

[2] = Dynamic surface tension by the maximum bubble pressure method; conditions: 0.5 wt. % aqueous solution, 25° C., at 100 milliseconds
Procedure: For the measurement of dynamic surface tension, each compound was dissolved in water, heated if necessary, to prepare 80 g of 0.5 wt. % aqueous solutions. The dynamic surface tension thereof was measured at 25° C. according to the maximum bubble pressure method. The obtained value was that measured at 100 milliseconds. The measurement instrument used was a “KRUSS BUBBLE PRESSURE TENSIOMETER-BP2”.

[3] = Water solubility evaluation, observed with the naked eye; conditions: 25° C.; for Water Solubility 1%: 1 wt. % aqueous mixture; for Water Solubility 5%: 5 wt. % aqueous mixture; for Water Solubility 50%: 50 wt. % aqueous mixture
Procedure: For the evaluation of water solubility, a uniform liquid was used that was obtained by heating each compound at about 60° C. 5g aqueous mixtures were prepared at predetermined concentrations (1 wt. %, 5 wt. % and 50 wt. %) in capped sample bottles.

| Substance | Static Surface Tension 0.10% [1] [mN/m] | Dynamic Surface Tension 0.50% [2] [mN/m] | Water Solubility 1% [3] | Water Solubility 5% [3] | Water Solubility 50% [3] |
| --- | --- | --- | --- | --- | --- |
| C4F9—CH2CH(OH)CH2O—(CH2CH2O)20—C18H37 [Example 4] | 24.1 | 36 | Dissolved | Dissolved | Uniform gel |
| C4F9—CH2CH(OH)CH2O—(CH2CH2O)23—C16H33 [Example 1] | 24.2 | 34 | Dissolved | Dissolved | Dissolved |
| C4F9—CH2CH(OH)CH2O—(CH2CH2O)25—C16H33 [Example 2] | 23.8 | 34 | Dissolved | Dissolved | Dissolved |
| C4F9—CH2CH(OH)CH2O—(CH2CH2O)40—C16H33 [Example 3] | 30.5 | 45 | Dissolved | Dissolved | Dissolved |
| C16H33O—(CH2CH2O)15—H [Comparative Example 8, reference compound] | 37.5 | 59 | Dissolved | Suspended | Solid |
| C18H33COO—(CH2CH2O)23—COC18H33 [Comparative Example 9, reference compound] | 34.8 | 61 | Dissolved | Dissolved | Uniform gel |

The next lines start with the values.

| Static Surface Tension 0.10% [1] [mN/m] | Dynamic Surface Tension 0.50% [2] [mN/m] | Water Solubility 1% [3] | Water Solubility 5% [3] | Water Solubility 50% [3] | Substance |
| --- | --- | --- | --- | --- | --- |
| 21.9 | 30 | Dissolved | Dissolved | Dissolved | C4F9—CH2CH(OH)CH2O—(CH2CH2O)21—C12H25 [Example 5] |
| 18.4 | 32 | Dissolved | Dissolved | Dissolved | C4F9—CH2CH(OH)CH2O—(CH2CH2O)23—CH2CH(OH)CH2—C4F9 [Example 7] |
| 23.1 | 35 | Dissolved | Dissolved | Dissolved | C4F9—CH2CH(OH)CH2O—(CH2CH2O)25—C12H25 [Example 6] |
| 18.6 | 32 | Dissolved | Dissolved | Dissolved | C4F9—CH2CH(OH)CH2O—(CH2CH2O)35—CH2CH(OH)CH2—C4F9 [Example 8] |
| 19.1 | 34 | Dissolved | Dissolved | Dissolved | C4F9—CH2CH(OH)CH2O—(CH2CH2O)45—CH2CH(OH)CH2—C4F9 [Example 9] |

Source: patent US20050170989A1, “Fluorine-containing water-soluble nonionic surface-active compounds, use thereof and process for preparation of the compounds” (DAIKIN INDUSTRIES, LTD., priority 2002, published 2005)
